# From patent publication US20250325508A1, “MODULATORS OF PROTEASOME DYNAMICS AND/OR FUNCTION, COMPOSITIONS, METHODS, AND THERAPEUTIC USES THEREOF” (TECHNION RESEARCH & DEVELOPMENT FOUNDATION LIMITED, priority 2022, published 2025)
# Assays:
# Format in all cases: cell-based, human
# Ubiquitin conjugates = Ubiquitin conjugates levels (in-cell Western); details: stress, HeLa cells
# Description: Cells were seeded in a 96-well plate at a density of 15,000 cells/well. ˜36 h later, cells were treated as described and were visualized live, using high-throughput fluorescence microscopy (IXM-C, Molecular Devices) under a controlled environment (21% O2, 5% CO2, 37° C.). Hoechst 33342 was used to stain nuclei of all cells, and SYTOX™ (Thermo) was used to stain dead cells. Data analysis was performed using the Live/Dead module of the MetaXpress software (Molecular Devices). […] For ubiquitination, the inventors used in-cell Western blotting using an anti-Ub-conj [O. Braten et al., Proc. Natl. Acad. Sci. 113, E4639-47 (2016), and a secondary fluorescent antibody. Intensities were quantified using Li-Cor imager and software (Odyssey).
# 26S proteasome = experiment: Proteasome subcellular localization in cultured cells (immunofluorescence, cell fractionation/Western blot)
# Description: Cells were incubated for 20 min in fractionation buffer [20 mM HEPES pH 7.3, 10 mM KCl, 5 mM ATP, 5 mM MgCl2, and protease inhibitor cocktail (Roche)], followed by the addition of Digitonin (0.01%). They were then mixed thoroughly and centrifuged at 1,000×g for 5 min. The supernatant was collected as cytosolic fraction, and the pellet was washed with fractionation buffer supplemented with NP-40 (0.05%) and centrifuged, and the pellet (nuclei) was resuspended in fractionation buffer supplemented with sodium deoxycholate (0.5%), followed by its sonication.
# Cells were washed twice with ice cold PBS and scraped into lysis buffer (50 mM Tris-HCl, pH 7.4, 130 mM NaCl, 0.5% NP-40) supplemented with freshly added protease inhibitor cocktail, 5 mM ATP, 10 mM iodoacetamide, and 5 mM N-ethyl maleimide. Protein concentration was measured by the BCA assay according to the manufacturer's instructions (Pierce, Rockford, IL). 30 μg of cellular protein were resolved via SDS-PAGE, transferred to a nitrocellulose membrane and immunoblotted with the appropriate antibody.
# Cells were seeded on glass cover slips for 36 h. Following the indicated treatments, they were fixed with 4% PFA for 15 min, washed with phosphate-buffered saline (PBS) and incubated in PBS containing 10% goat serum for 1 h at room temperature, followed by 2 h incubation with the indicated primary antibody. Following extensive wash with PBS, the fixed cells were incubated with the relevant secondary antibody for 1 h, washed and mounted. Images were acquired using Zeiss LSM 700 confocal microscope (Zeiss, Oberkochen, Germany). […]
# autophagy = experiment: Autophagy (LC3 lipidation, RFP-GFP-LC3 autophagic flux); details: LC3 Western blot and GFP-RFP-LC3 autophagic flux, HeLa cells
# Description: Cells were washed twice with ice cold PBS and scraped into lysis buffer (50 mM Tris-HCl, pH 7.4, 130 mM NaCl, 0.5% NP-40) supplemented with freshly added protease inhibitor cocktail, 5 mM ATP, 10 mM iodoacetamide, and 5 mM N-ethyl maleimide. Protein concentration was measured by the BCA assay according to the manufacturer's instructions (Pierce, Rockford, IL). 30 μg of cellular protein were resolved via SDS-PAGE, transferred to a nitrocellulose membrane and immunoblotted with the appropriate antibody. Cells stably expressing the fusion of RFP-GFP-LC3 were treated as described and were visualized live, using high-throughput fluorescence microscopy (IXM-C, Molecular Devices) under controlled environment (21% O2, 5% CO2, 37° C.). Analysis of autophagic flux was made based on the differential signal in the green and red channels, as previously described [[…], et al. (2009). Cell 136, 521-534] Due to the instability of GFP in acidic pH, only RFP retains its fluorescence in the acidic lysosome, while both are visible in the autophagosome. The RFP: GFP puncta ratio is indicating the extent of autophagy activation, or flux. The figure presents mean+/-SD and Student's T-Test p-values of three replicates.
# proteasome = experiment: Mass spectrometric analysis of proteasome sub-complexes' composition (assembly); details: starvation plus substance
# Description: Analysis of proteasome assembly and sub-complex composition was performed using the MCP20 antibody against the α6 proteasome subunit, as previously described using the MCP21 antibody against α2 [B. Fabre et al., Mol. Cell. Proteomics 12, 687-699 (2013)]. Briefly, following the indicated treatments, cell lysates were immunoprecipitated using the α6 antibody, and the precipitates were subjected to proteomic mass spectrometry. Intensities of the different proteasomal subunits were normalized according to the median of intensities measured for all 20S subunits. Ratios were calculated for each condition relative to untreated cells (control). The color scale represents Log 2 fold-change.
smiles,measurement,setting,value
CCC(=C/[C@H](C)C/C=C/C(C)=C/[C@@H](C)C(=O)[C@@H](C)[C@H](O)[C@@H](C)C/C(C)=C/C(=O)O)/C=C/[C@@H]1OC(=O)C=C[C@@H]1C [Leptomycin B],degradation and depletion of ubiquitin adducts,Ubiquitin conjugates,inhibited degradation and depletion of ubiquitin adducts
same,proteasome translocation from the nucleus to the cytosol,"26S proteasome; amino acid starvation, substance added to starvation medium",inhibition of the translocation
same,proteasome localization,"26S proteasome; non-stressed / well-fed cells, complete medium",nuclear accumulation of the proteasome
same,autophagy under starvation,autophagy,not inhibited
same,effect of stress on proteasome assembly (20S and 19S sub-complexes),proteasome,did not reverse the effect of stress on proteasome assembly
